Columns and labels:
Type in all cases: cell-based
[1] = test system: synovial sarcoma cell lines (SYO1, Yamato, HS-SY-II, and ASKA); test: Growth of synovial sarcoma cell lines (IncuCyte confluency, crystal violet staining, colony imaging), Example 3; conditions: FIGS. 5, 6, 7, 1 μM in crystal violet assay
Method: (§1) Growth medium and compounds were refreshed every 3-4 days.
(§2) The number of cells was optimized for each cell line. Growth medium and compounds were refreshed every 3-5 days. SYO1, Yamato, A549, 293T and HS-SY-II cells were fixed and stained at day 11. ASKA cells were fixed and stained at day 23. Staining was done by incubation with crystal violet solution (0.5 g Crystal Violet, 27 ml 37% Formaldehyde, 100 mL 10×PBS, 10 mL Methanol, 863 dH20 to 1 L) for 30 min followed by 3× washes with water and drying the plates for at least 24 h at room temperature. Subsequently plates were scanned on an Odyssey CLx Imaging system (FIG. 6).
(§3) Cells were seeded into 96-well ultra low cluster plate (Costar, #7007) in 200 μL complete media and treated at day 2 with DMSO, Staurosporin, or BRD9 degarder, Compound 1, at indicated doses (FIG. 7). Media and compounds were changed every 5 d and cell colonies were imaged at day 14.

[2] = test system: non-synovial control cancer cell lines (293T, A549, G401); test: Growth of non-synovial control cancer cell lines, Example 3; conditions: FIGS. 5, 6, 7
Method: as §1, §2, §3

[3] = test system: synovial sarcoma cell lines (SYO1, HS-SY-II, and ASKA); test: Crystal violet growth assay, day 14, synovial sarcoma cell lines, Example 4; conditions: for growth of synovial sarcoma cell lines: SYO1, HS-SY-II, ASKA, daily treatment, day 14, crystal violet, FIGS. 8 and 9
Method: (§4) Procedure: Cells were seeded into 6-well or 12-well plates and were treated daily with a BRD9 degrader (Compound 1), a bromo-domain BRD9 binder (Compound 2), E3 ligase binder (lenalidomide), DMSO, or staurosporin (positive control for cell killing), at indicated concentrations. The number of cells was optimized for each cell line. Growth media was refreshed every 5 days. By day 14, medium was removed, cells were washed with PBS, and stained using 500 μL of 0.005% (w/v) crystal violet solution in 25% (v/v) methanol for at least 1 hour at room temperature. Subsequently plates were scanned on an Odyssey CLx Imaging system.

[4] = test system: non-synovial control cancer cell lines (RD, HCT116, and Calu6); test: Crystal violet growth assay, day 14, non-synovial control cancer cell lines, Example 4; conditions: daily treatment, day 14, crystal violet, FIGS. 8 and 9
Method: as §4

SYO1 cells [5] = test: Cell cycle analysis, Click-iT Plus EdU Flow Cytometry Assay; conditions: 200 nM or 1 μM, 8 or 13 days, compared to DMSO and lenalidomide
Method: (§5) Compounds were refreshed every 5 days. Cell cycle analysis was performed using the Click-iT™ Plus EdU Flow Cytometry Assay (Invitrogen). The apoptosis assay was performed using the Annexin V-FITC Apoptosis Detection Kit (Sigma A9210). Assays were performed according to the manufacturer's protocol.

SYO1 cells [6] = test: Apoptosis assay, Annexin V-FITC Apoptosis Detection Kit; conditions: 200 nM or 1 μM, 8 days, compared to DMSO controls
Method: as §5

Row | SMILES | growth of synovial sarcoma cell lines [1] | growth of non-synovial control cancer cell lines [2] | growth of synovial sarcoma cell lines [3] | growth inhibition compared among the test agents ([3]; all synovial cell lines) | growth of non-synovial control cancer cell lines [4] | numbers of cells in the S-phase of the cell cycle (SYO1 cells [5]) | numbers of early- and late-apoptotic cells (SYO1 cells [6])
1 | COc1cc(-c2cn(C)c(=O)c3cnccc23)cc(OC)c1CN(C)CC(=O)NCCOCCOCCNc1cccc2c1C(=O)N(C1CCC(=O)NC1=O)C2=O (centres unmarked) [Compound A] | inhibition of the growth of the cells | does not result in inhibition of the growth | inhibition of the growth of the cells | most significant growth inhibition | did not result in inhibition of the growth | reduced numbers of cells in the S-phase | increased numbers of early- and late-apoptotic cells
2 | COc1cc(-c2cn(C)c(=O)c3cnccc23)cc(OC)c1CN(C)C [Compound B] | inhibition of the growth of the cells | does not result in inhibition of the growth | inhibition of the growth of the cells |  | did not result in inhibition of the growth |  | 

From patent US11787800B2, “BRD9 degraders and uses thereof” (Foghorn Therapeutics Inc., priority 2020, dated 2023)
